Results: ChEMBL document CHEMBL1148236, “Synthesis and structure-activity relationship of 3-arylbenzoxazines as selective estrogen receptor beta agonists” (Bioorg Med Chem Lett, 2004)
One block for each compound: values may come before it.

Columns and labels:
[1] = molecular target: T1, Estrogen receptor (Homo sapiens, UniProt P03372)
T1 sequence (P03372 whole entry): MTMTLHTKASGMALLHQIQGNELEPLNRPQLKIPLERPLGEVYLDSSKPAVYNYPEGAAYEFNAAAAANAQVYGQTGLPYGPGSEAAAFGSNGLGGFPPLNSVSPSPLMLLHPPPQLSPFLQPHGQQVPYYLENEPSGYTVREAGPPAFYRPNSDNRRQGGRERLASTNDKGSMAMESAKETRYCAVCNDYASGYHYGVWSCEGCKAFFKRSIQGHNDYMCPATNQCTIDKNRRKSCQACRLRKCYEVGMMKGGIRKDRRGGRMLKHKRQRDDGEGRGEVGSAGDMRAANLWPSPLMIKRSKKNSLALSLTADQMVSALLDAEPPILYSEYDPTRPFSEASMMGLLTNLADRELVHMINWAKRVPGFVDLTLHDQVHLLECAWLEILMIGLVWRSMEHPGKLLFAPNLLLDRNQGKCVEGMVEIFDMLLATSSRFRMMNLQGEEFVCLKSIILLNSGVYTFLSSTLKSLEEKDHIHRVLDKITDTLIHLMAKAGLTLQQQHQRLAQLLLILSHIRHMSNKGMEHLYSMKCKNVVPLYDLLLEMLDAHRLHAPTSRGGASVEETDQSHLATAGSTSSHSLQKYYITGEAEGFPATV
Description: Ability to activate estrogen receptor 1-mediated transcription.

[2] = molecular target: T2, Estrogen receptor beta (Homo sapiens, UniProt Q92731)
Description: Binding affinity towards estrogen receptor beta by [3H]17-beta-estradiol displacement.

[3] = molecular target: T2, Estrogen receptor beta; remark: listed apart in the source
Description: Ability to activate estrogen receptor 2-mediated transcription.

[4] = molecular target: T1, Estrogen receptor; remark: listed apart in the source
Description: Binding affinity towards estrogen receptor alpha by [3H]17-beta-estradiol displacement.

T2 sequence (Q92731 whole entry): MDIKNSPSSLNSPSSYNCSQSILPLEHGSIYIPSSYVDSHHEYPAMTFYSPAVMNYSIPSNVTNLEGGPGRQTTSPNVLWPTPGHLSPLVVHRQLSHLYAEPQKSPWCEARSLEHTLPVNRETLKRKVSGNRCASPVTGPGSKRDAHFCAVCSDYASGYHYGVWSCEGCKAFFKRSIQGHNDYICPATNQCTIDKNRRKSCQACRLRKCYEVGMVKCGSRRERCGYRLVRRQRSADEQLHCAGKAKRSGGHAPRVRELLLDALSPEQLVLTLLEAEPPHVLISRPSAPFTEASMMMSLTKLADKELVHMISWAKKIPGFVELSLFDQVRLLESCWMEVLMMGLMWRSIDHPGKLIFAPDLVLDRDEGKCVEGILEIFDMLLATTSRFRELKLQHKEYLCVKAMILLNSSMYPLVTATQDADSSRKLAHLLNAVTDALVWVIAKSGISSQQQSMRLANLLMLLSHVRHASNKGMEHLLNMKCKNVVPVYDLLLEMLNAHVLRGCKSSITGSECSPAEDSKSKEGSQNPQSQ

- EC50 [1]: 1700 nM
- IC50 [2]: 320 nM
- EC50 [3]: 18 nM
- IC50 [4]: 1.7 µM
Structure (SMILES): CCCC1Oc2cc(O)ccc2N=C1c1ccc(O)cc1 (centres undefined)

- EC50 [1]: 64 nM
- IC50 [2]: 330 nM
- EC50 [3]: 30 nM
- IC50 [4]: 1.7 µM
Structure (SMILES): CC1Oc2cc(O)ccc2N=C1c1ccc(O)cc1 (centres undefined)

- EC50 [1]: 59 nM
- IC50 [2]: 200 nM
- EC50 [3]: 7 nM
- IC50 [4]: 0.85 µM
Structure (SMILES): CCC1Oc2cc(O)ccc2N=C1c1ccc(O)cc1 (centres undefined)

- EC50 [1]: 290 nM
- IC50 [2]: 1100 nM
- EC50 [3]: 74 nM
- IC50 [4]: 6.3 µM
Structure (SMILES): CC1Oc2cc(O)cc(O)c2N=C1c1ccc(O)cc1 (single isomer, unassigned; enantiomer B)

- EC50 [1]: 150 nM
- IC50 [2]: 310 nM
- EC50 [3]: 47 nM
- IC50 [4]: 2.9 µM
Structure (SMILES): CC1Oc2cc(O)cc(O)c2N=C1c1ccc(O)cc1 (stereo in doubt; 4i)

The remaining lines, values behind:

Structure (SMILES): CC1(C)Oc2cc(O)ccc2N=C1c1ccc(O)cc1
- EC50 [1]: 3100 nM
- IC50 [2]: 5600 nM
- EC50 [3]: 140 nM
- IC50 [4]: 8.6 µM

Structure (SMILES): Oc1ccc2c(c1)CC1Oc3cc(O)ccc3N=C21 (centres undefined)
- EC50 [1]: 900 nM
- IC50 [2]: 1400 nM
- EC50 [3]: 77 nM
- IC50 [4]: 5.6 µM

Structure (SMILES): Oc1ccc(C2=Nc3c(O)cc(O)cc3OC2)cc1
- EC50 [1]: 1800 nM
- IC50 [2]: 2800 nM
- EC50 [3]: 270 nM
- IC50 [4]: 33 µM

Structure (SMILES): CC1(C)Oc2cc(O)cc(O)c2N=C1c1ccc(O)c(Br)c1
- EC50 [1]: 1400 nM
- IC50 [2]: 1700 nM
- EC50 [3]: 120 nM
- IC50 [4]: 6 µM

Structure (SMILES): CCC1Oc2cc(O)cc(O)c2N=C1c1ccc(O)c(Br)c1 (centres undefined)
- EC50 [1]: 2000 nM
- IC50 [2]: 1100 nM
- EC50 [3]: 180 nM
- IC50 [4]: 5.3 µM

Structure (SMILES): CCC1Oc2cc(O)cc(C)c2N=C1c1ccc(O)c(Br)c1 (centres undefined)
- EC50 [1]: 170 nM
- IC50 [2]: 90 nM
- EC50 [3]: 8 nM
- IC50 [4]: 0.18 µM

Structure (SMILES): Cc1cc(O)cc2c1N=C(c1ccc(O)c(Br)c1)C(C)O2 (centres undefined)
- EC50 [1]: 46 nM
- IC50 [2]: 90 nM
- EC50 [3]: 16 nM
- IC50 [4]: 0.32 µM

Structure (SMILES): Oc1ccc(C2=Nc3ccc(O)cc3OC2)cc1
- EC50 [1]: 6900 nM
- IC50 [2]: 2900 nM
- EC50 [3]: 160 nM
- IC50 [4]: 16 µM

Structure (SMILES): Oc1ccc2c(c1)CCC1Oc3cc(O)ccc3N=C21 (centres undefined)
- EC50 [1]: 12000 nM
- IC50 [2]: 2600 nM
- EC50 [3]: 240 nM
- IC50 [4]: 6 µM

Structure (SMILES): CCC1Oc2cc(O)cc(O)c2N=C1c1ccc(O)cc1 (centres undefined)
- EC50 [1]: 170 nM
- IC50 [2]: 120 nM
- EC50 [3]: 26 nM
- IC50 [4]: 1.2 µM

Structure (SMILES): CC1Oc2cc(O)cc(O)c2N=C1c1ccc(O)cc1 (single isomer, unassigned)
- EC50 [1]: 140 nM
- IC50 [2]: 240 nM
- EC50 [3]: 50 nM
- IC50 [4]: 2.8 µM
